These results are taken from ChEMBL document CHEMBL2016455, “5-Benzothiazole substituted pyrimidine derivatives as HCV replication (replicase) inhibitors” (Bioorg Med Chem Lett, 2012).

A value given as a limit tells only on which side of the number the result lay.

Data set [1] is described as follows: Cytotoxicity against human hepatoma cells assessed as decrease in RNA level after 3 days by RT-PCR analysis. In kind it is cell-based. The settings on record: human hepatoma cells.
A further data set has as its system Hepatitis C virus. In words: Antiviral activity against Hepatitis C virus isolate con1 1b infected in human hepatoma cells replicon cells after 3 days by RT-PCR analysis. The format is functional, organism-based, Hepacivirus hominis, genotype 1b Con1. The note with it: Hepatitis C virus, genotype 1b Con1, 72 h. For orientation: Replicon systems follow genome replication, usually without infectious particles.

A short description of data set [2]: AUC (0 to 6 hrs) in rat at 10 mg/kg, po. In kind it is ADME, organism-based. The settings on record: plasma. On the set-up: time < 6 hr, dose 10 mg/kg, route oral.
The nature of data set [3]: Cytotoxicity against human hepatoma cells after 3 days by MTS assay. The format is cell-based. The settings on record: human hepatoma cells. A general note: Tetrazolium dyes change colour on reduction, which living cells bring about.
Another data set deals with Liver. The data set can be described thus: Drug uptake in rat liver per mg tissue at 10 mg/kg, po after 6 hrs. On the set-up: dose 10 mg/kg, route oral. The format is ADME, organism-based. The note with it: in vivo.

A word on the CC50: it is the concentration giving 50% cytotoxicity. A word on the EC50: it is the concentration giving half of the maximal effect. A high value points to a less potent agent. In the case of `Nc1nc(Cl)c(-c2cccs2)c(N[C@@H]2C[C@H](CO)[C@@H](O)[C@H]2O)n1`, the CC50 at 72 h in data set [1] is more than 25 µM. The EC50 in the data set on Hepatitis C virus is more than 25 µM.
As a reminder, the AUC(0-t) is exposure summed from dosing to a finite time, without extrapolation to infinity. A lower AUC(0-t) goes with low exposure. Regarding `CNc1nc(C)c(-c2nc3ccccc3s2)c(N[C@@H]2C[C@H](CO)[C@@H](O)[C@H]2O)n1`, the CC50 at 72 h in data set [1] and in data set [3] was more than 25 µM throughout. This compound came in with an AUC(0-t) at 6 h in data set [2] of 2.7 µM·h. The Drug uptake in the data set with Liver was determined as 75 ng/g. The compound also gave an EC50 with Hepatitis C virus of 0.05 µM.
For `Nc1nc(Cl)c(-c2nccs2)c(N[C@@H]2C[C@H](CO)[C@@H](O)[C@H]2O)n1`, the CC50 at 72 h in data set [1] and in data set [3] was more than 25 µM each time. The compound further registered an EC50 with Hepatitis C virus of 3 µM.
Take `CCNc1nc(C)c(-c2nc3ccccc3s2)c(N[C@@H]2C[C@H](CO)[C@@H](O)[C@H]2O)n1`: the CC50 at 72 h is 12 µM in data set [1] and more than 25 µM in data set [3]. This compound also yielded an AUC(0-t) at 6 h in data set [2] of 6.2 µM·h. In addition, the Drug uptake in the data set on Liver worked out at 515 ng/g. Also, the EC50 in the data set with Hepatitis C virus is 0.1 µM.
Consider `CCOc1ccc2nc(-c3c(Cl)nc(N)nc3N[C@@H]3C[C@H](CO)[C@@H](O)[C@H]3O)sc2c1`, for which the CC50 at 72 h in data set [1] was more than 25 µM; in data set [3], 25 µM. Further, the concentration for a half-maximal effect (EC50) with Hepatitis C virus was 0.03 µM.
On to `CCOCCNc1nc(C)c(-c2nc3ccccc3s2)c(N[C@@H]2C[C@H](CO)[C@@H](O)[C@H]2O)n1`, for which the CC50 at 72 h in data set [1] and in data set [3] was 18 µM each time. Besides, the AUC(0-t) at 6 h in data set [2] came to 2.4 µM·h. In the data set with Liver, this compound gave a Drug uptake of 400 ng/g. The EC50 in the data set with Hepatitis C virus came out at 0.035 µM.
For `Nc1nc(Cl)c(-c2nc3ccc(F)cc3s2)c(N[C@@H]2C[C@H](CO)[C@@H](O)[C@H]2O)n1`, the CC50 at 72 h in data set [1] and in data set [3] was more than 25 µM throughout. Also, the response in the data set on Hepatitis C virus was half-maximal at 0.18 µM (EC50).
In the case of `Cc1nc(NCCNC(=O)NC(C)(C)C)nc(N[C@@H]2C[C@H](CO)[C@@H](O)[C@H]2O)c1-c1nc2ccccc2s1`, the CC50 at 72 h in data set [1] and in data set [3] was more than 25 µM each time. This compound had an EC50 in the data set on Hepatitis C virus of 0.9 µM.
Turning to `Nc1nc(Cl)c(-c2nc3ccccc3s2)c(N[C@@H]2C[C@H](CO)[C@@H](O)[C@H]2O)n1`, the figures for the CC50 at 72 h in data set [1] and in data set [3] were 14 µM and 18 µM, respectively. Also, the AUC(0-t) at 6 h in data set [2] stood at 0.08 µM·h. This compound displayed an EC50 in the data set on Hepatitis C virus of 0.02 µM.
`Nc1nc(Cl)c(-c2cnccn2)c(N[C@@H]2C[C@H](CO)[C@@H](O)[C@H]2O)n1` came in with a CC50 at 72 h in data set [3] of more than 25 µM. Besides, in the data set with Hepatitis C virus, the 50% effective concentration (EC50) is more than 25 µM.
As to `CNc1ccc2sc(-c3c(Cl)nc(N)nc3N[C@@H]3C[C@H](CO)[C@@H](O)[C@H]3O)nc2c1`, the CC50 at 72 h in data set [1] stood at 20 µM; in data set [3] it was 14 µM. Besides, in the data set on Hepatitis C virus, the EC50 turned out to be 0.02 µM.
The matching figures for `CCCNc1nc(C)c(-c2nc3ccccc3s2)c(N[C@@H]2C[C@H](CO)[C@@H](O)[C@H]2O)n1`: more than 25 µM, more than 25 µM and 0.31 µM.
In the case of `Nc1nc(Cl)c(-c2nc3ccccc3o2)c(N[C@@H]2C[C@H](CO)[C@@H](O)[C@H]2O)n1`, the CC50 at 72 h in data set [1] amounted to 12 µM; in data set [3], 15 µM. In addition, the EC50 with Hepatitis C virus was 0.05 µM.
As to `Nc1nc(Cl)c(-c2cc3ccccc3[nH]2)c(N[C@@H]2C[C@H](CO)[C@@H](O)[C@H]2O)n1`, the CC50 at 72 h in data set [3] is 25 µM. This compound also had an EC50 in the data set on Hepatitis C virus of 7 µM.
In the case of `CNc1ccc2nc(-c3c(Cl)nc(N)nc3N[C@@H]3C[C@H](CO)[C@@H](O)[C@H]3O)sc2c1`, the CC50 at 72 h in data set [1] was found to be 6 µM; in data set [3], 16 µM. The compound further yielded an EC50 with Hepatitis C virus of 0.05 µM.
For `Nc1nc(Cl)c(-c2nc3ccc(Cl)cc3s2)c(N[C@@H]2C[C@H](CO)[C@@H](O)[C@H]2O)n1`, the cytotoxic concentration (CC50) at 72 h in data set [1] was 16 µM; in data set [3], more than 25 µM. Also, a half-maximal effect in the data set on Hepatitis C virus (EC50) was put at 0.65 µM.
In the case of `Nc1nc(Cl)c(-c2ncco2)c(N[C@@H]2C[C@H](CO)[C@@H](O)[C@H]2O)n1`, the CC50 at 72 h in data set [1] and in data set [3] was more than 25 µM throughout. Further, the EC50 in the data set with Hepatitis C virus was more than 25 µM.
On to `CN(C)c1ccc2sc(-c3c(Cl)nc(N)nc3N[C@@H]3C[C@H](CO)[C@@H](O)[C@H]3O)nc2c1`, for which the CC50 at 72 h in data set [1] amounted to 25 µM; in data set [3], 21 µM. Besides, the EC50 in the data set on Hepatitis C virus worked out at 0.035 µM.
The corresponding values for `Nc1nc(Cl)c(-c2ccco2)c(N[C@@H]2C[C@H](CO)[C@@H](O)[C@H]2O)n1` are more than 25 µM, more than 25 µM and 4 µM.
The matching figures for `Nc1nc(Cl)c(-c2ccccn2)c(N[C@@H]2C[C@H](CO)[C@@H](O)[C@H]2O)n1`: more than 25 µM, more than 25 µM and more than 25 µM.
`Nc1nc(Cl)c(-c2ccccc2)c(N[C@@H]2C[C@H](CO)[C@@H](O)[C@H]2O)n1` had a CC50 at 72 h in data set [3] of more than 25 µM. Further, in the data set on Hepatitis C virus, the EC50 is more than 25 µM.
As to `CN(C)c1ccc2nc(-c3c(Cl)nc(N)nc3N[C@@H]3C[C@H](CO)[C@@H](O)[C@H]3O)sc2c1`, the CC50 at 72 h in data set [1] and in data set [3] was more than 25 µM each time. Further, in the data set with Hepatitis C virus, the EC50 was found to be 1 µM.
With `Cc1nc(N)nc(N[C@@H]2C[C@H](CO)[C@@H](O)[C@H]2O)c1-c1nc2ccccc2s1`, the results for the CC50 at 72 h in data set [1] and in data set [3] were 4 µM and 25 µM, respectively. This compound registered an exposure AUC(0-t) at 6 h in data set [2] of 4.7 µM·h. The compound further came in with an EC50 with Hepatitis C virus of 0.13 µM.
On to `Cc1nc(NCCNS(C)(=O)=O)nc(N[C@@H]2C[C@H](CO)[C@@H](O)[C@H]2O)c1-c1nc2ccccc2s1`, for which the CC50 at 72 h in data set [1] and in data set [3] was more than 25 µM each time. The EC50 in the data set on Hepatitis C virus is 0.26 µM.
Take `CCc1nc(N(C)C)nc(N[C@@H]2C[C@H](CO)[C@@H](O)[C@H]2O)c1-c1nc2ccccc2s1`: the CC50 at 72 h in data set [1] and in data set [3] was more than 25 µM throughout. Also, the EC50 in the data set on Hepatitis C virus amounted to 13 µM.
Take `Nc1nc(Cl)c(-c2cc3ccccc3o2)c(N[C@@H]2C[C@H](CO)[C@@H](O)[C@H]2O)n1`: the CC50 at 72 h in data set [3] is more than 25 µM. For the same compound, in the data set with Hepatitis C virus, the concentration giving a half-maximal response (EC50) worked out at 0.3 µM.
Regarding `COc1ccc2nc(-c3c(Cl)nc(N)nc3N[C@@H]3C[C@H](CO)[C@@H](O)[C@H]3O)sc2c1`, the CC50 at 72 h in data set [1] and in data set [3] was more than 25 µM in each case. The compound further registered an EC50 in the data set on Hepatitis C virus of 0.045 µM.
For `Nc1nc(Cl)c(-c2cc3ccccc3s2)c(N[C@@H]2C[C@H](CO)[C@@H](O)[C@H]2O)n1`, the CC50 at 72 h in data set [1] is more than 25 µM. For the same compound, the EC50 in the data set on Hepatitis C virus was more than 25 µM.
For the compound `Cc1nc(N[C@H](C)C(F)(F)F)nc(N[C@@H]2C[C@H](CO)[C@@H](O)[C@H]2O)c1-c1nc2ccccc2s1`, the CC50 at 72 h is 21 µM in data set [1] and 19 µM in data set [3]. In the data set on Hepatitis C virus, the response was half-maximal at 0.1 µM (EC50).
With `Cc1nc(Nc2ccncc2)nc(N[C@@H]2C[C@H](CO)[C@@H](O)[C@H]2O)c1-c1nc2ccccc2s1`, the CC50 at 72 h in data set [1] and in data set [3] was 7 µM in each case. In the data set on Hepatitis C virus, the midpoint of the response, the EC50, lay at 0.33 µM.
In the case of `Cc1nc(Nc2ncco2)nc(N[C@@H]2C[C@H](CO)[C@@H](O)[C@H]2O)c1-c1nc2ccccc2s1`, the CC50 at 72 h in data set [1] and in data set [3] was more than 25 µM each time. Further, in the data set on Hepatitis C virus, the EC50 came to 4.5 µM.
As for `Cc1nc(Nc2nccs2)nc(N[C@@H]2C[C@H](CO)[C@@H](O)[C@H]2O)c1-c1nc2ccccc2s1`, the figures for the CC50 at 72 h in data set [1] and in data set [3] were 15 µM and 13 µM, respectively. In the data set with Hepatitis C virus, this compound registered an EC50 of 0.77 µM.
